Reference: patent publication US20220088024A1, “METHODS FOR TREATING CANCER USING TOZADENANT” (Biotie Therapies, Inc., priority 2018, published 2022)
Several values for one entry are separate records, joined by “and”; a condition that tells them apart may be missing. Identical values can stand only once. Like-named read-outs stand apart in the source and are kept apart here.

Key:
[1] = tested on: B16F10 CD73 melanoma metastases; experiment: Example 8: number of lung tumor metastases in the B16F10 CD73 tumor mouse model; format: in vivo, C57/BL6 mice (A2A-/- or Wild-Type); conditions: 100 mg/kg once-daily oral gavage days 0 to 13, counted day 14, Batch 71236AA002
Description: The C57/BL6 mouse melanoma cell line B16F10 CD73 was cultured in DMEM supplemented with 10% FCS, GlutaMAX, and penicillin/streptomycin. Tumor cells are periodically verified to be Mycoplasma negative by the Victorian Infectious Diseases References
Lab (Melbourne, VIC, Australia) by PCR analysis. 2×10^5 cells were resuspended in PBS and injected i.v. into C57/BL6 mice (A2A^−/− or Wild-Type) in a 200 μL volume. At day 14, lungs were excised and the number of metastases counted under the dissecting microscope. Mice were dosed with either SYN-115 (Batch 71236AA002) at 100 mg/kg or vehicle control once-daily via oral gavage on days 0 to 13. To calculate a dose of SYN-115, mouse weight was estimated to be 20 g per mouse. Therefore, 100 mg/kg=2 mg per mouse in 200 μL, which is equivalent to 10 mg/ml. To make up 40 mL 400 milligrams of SYN-115 was weighed and added into a Falcon tube, then 1 mL of Tween 80 added and mixed into a paste and then 39 mL of 1% Methyl Cellulose was added. Solution was vortexed and then left on rotating mixer for at least 2 hours and maintained at 4° C.

[2] = Example 11: plasma pharmacokinetics (toxicokinetics) of tozadenant in mice after twice daily oral administration; format: in vivo, Crl:CD1(ICR) mice; design: Cmax/D / AUC0-24/D: unit not given beside the values; conditions: for AUC(0-t) / AUC / Cmax / Tmax: Crl:CD1(ICR), mouse, plasma; for Cmax: read-out: Cmax
Description: The plasma pharmacokinetics and exposure levels of tozadendant have been documented in mice after oral administration, the same route of administration as tozadenant was dosed in the oncology efficacy studies.
The PK of tozadenant in mice was compared across a range of doses and dose frequencies. […]
Groups of mice of the Crl:CD1(ICR) strain were dosed, as follows:
The vehicle for the tozadenant in this mouse PK study was 1.6% (w/v) Avicel RC-591 (FMC), 0.2% (v/v) Tween 80, 0.18% (w/v) methylparaben and 0.02% (w/v) propylparaben in reverse osmosis water, pH 6.0±0.3. The 1.6% (w/v) Avicel RC-591 (FMC) was supplied by Biopolymer International, Brussels, Belgium. The 0.2% (v/v) Tween 80, 0.18% (w/v) methylparaben and 0.02% (w/v) propylparaben in reverse osmosis water, pH 6.0±0.3 was supplied by and Sigma-Aldrich Co Ltd, Poole, UK. This is the same formulation used for the mouse oncology model oral dosing.
The test article was administered orally by gavage, as follows:
Groups 1 to 4: Twice for one day (0 and 8 hours apart relative to initial dose)
Group 5: Twice for one day (0 and 12 hours apart relative to initial dose)
Blood samples for toxicokinetics (0.25 mL nominal) were taken from all toxicokinetic animals (subgroup 2), as follows:
For animals dosed at 0, 8 or 12 hour intervals, sampling time with respect to dose was symmetrical in each animal, for example, if an animal was sampled 0.5 hours after the first dose, it was sampled 0.5 hours after the second dose. The second sample obtained from each animal was collected under terminal anaesthesia.
Samples were taken from the orbital sinus (with the exception of Group 3 animals at the 10 hour bleed, which were taken by cardiac puncture) under isoflurane anaesthesia into K2EDTA. Samples were gently inverted to ensure mixing with anticoagulant, placed on a blood roller for at least one minute and then placed in a Kryorack until centrifugation.
Centrifugation was carried out at approximately 4-8° C. within one hour of collection. The resultant plasma from all samples was separated, transferred to uniquely labelled clear polypropylene tubes and frozen immediately at approximately <−10 to −30° C. Samples were analyzed at Covance.
Tozadenant was quantitated using protein precipitation followed by liquid chromatography mass spectrometry technique for quantification. This bioanalytical method was previously established and validated for tozadenant in mouse plasma.

[3] = Group 1, Male, 100 mg/kg/day (50 mg/kg/dose), oral, dosing at 0, 8 hr
[4] = Group 2, Male, 300 mg/kg/day (150 mg/kg/dose), oral, dosing at 0, 8 hr
[5] = Group 3, Male, 1000 mg/kg/day (500 mg/kg/dose), oral, dosing at 0, 8 hr
[6] = Group 4, 2000 mg/kg/day, dosing at 0, 8 hr
[7] = Group 4, Female, 2000 mg/kg/day (1000 mg/kg/dose), oral, dosing at 0, 8 hr
[8] = Group 4, Male, 2000 mg/kg/day (1000 mg/kg/dose), oral, dosing at 0, 8 hr
[9] = Group 5, 2000 mg/kg/day, dosing at 0, 12 hr
[10] = Group 5, Female, 2000 mg/kg/day (1000 mg/kg/dose), oral, dosing at 0, 12 hr
[11] = Group 5, Male, 2000 mg/kg/day (1000 mg/kg/dose), oral, dosing at 0, 12 hr

COc1ccc(N2CCOCC2)c2sc(NC(=O)N3CCC(C)(O)CC3)nc12 [SYN-115, 4-hydroxy-4-methyl-piperidine-1-carboxylic acid (4-methoxy-7-morpholin-4-yl-benzothiazol-2-yl)-amide]
Number of Tumor Metastases (lung), individual mice [1]: 21 and 1 (2×) and 5 and 11 and 13 and 28 and 2 and 8 | AUC0-24/D [2, 3]: 35.2 | Cmax/D [2, 3]: 7.64 | AUC0-24/D [2, 4]: 33.0 | Cmax/D [2, 4]: 5.73 | AUC0-24/D [2, 5]: 29.9 | Cmax/D [2, 5]: 3.61 | Female:Male Ratio AUC0-24 [2, 6]: 2.70 | Female:Male Ratio Cmax [2, 6]: 2.38 | AUC0-24/D [2, 7]: 58.0 | Cmax/D [2, 7]: 6.05 | AUC0-24/D [2, 8]: 21.5 | Cmax/D [2, 8]: 2.54 | Female:Male Ratio AUC0-24 [2, 9]: 2.02 | Female:Male Ratio Cmax [2, 9]: 1.28 | AUC0-24/D [2, 10]: 31.4 | Cmax/D [2, 10]: 4.12 | AUC0-24/D [2, 11]: 15.6 | Cmax/D [2, 11]: 3.22 | AUC(0-t) ([2]; female, po, 2000 mg/kg/day, Group 4, Female, 2000 mg/kg/day (1000 mg/kg/dose), oral, dosing at 0, 8 hr, read-out: AUC0-8): 35400 ng·h/mL | AUC(0-t) ([2]; female, po, 2000 mg/kg/day, Group 4, Female, 2000 mg/kg/day (1000 mg/kg/dose), oral, dosing at 0, 8 hr, read-out: AUC0-24): 116000 ng·h/mL | AUC ([2]; female, po, 2000 mg/kg/day, Group 4, Female, 2000 mg/kg/day (1000 mg/kg/dose), oral, dosing at 0, 8 hr, read-out: AUC8-24): 80600 ng·h/mL | Cmax ([2]; female, po, 2000 mg/kg/day, Group 4, Female, 2000 mg/kg/day (1000 mg/kg/dose), oral, dosing at 0, 8 hr): 12100 ng/mL | Tmax ([2]; female, po, 2000 mg/kg/day, Group 4, Female, 2000 mg/kg/day (1000 mg/kg/dose), oral, dosing at 0, 8 hr, read-out: Tmax): 14 h | AUC(0-t) ([2]; female, po, 2000 mg/kg/day, Group 5, Female, 2000 mg/kg/day (1000 mg/kg/dose), oral, dosing at 0, 12 hr, read-out: AUC0-12): 35500 ng·h/mL | AUC(0-t) ([2]; female, po, 2000 mg/kg/day, Group 5, Female, 2000 mg/kg/day (1000 mg/kg/dose), oral, dosing at 0, 12 hr, read-out: AUC0-24): 62700 ng·h/mL | AUC ([2]; female, po, 2000 mg/kg/day, Group 5, Female, 2000 mg/kg/day (1000 mg/kg/dose), oral, dosing at 0, 12 hr, read-out: AUC12-24): 27200 ng·h/mL | Cmax ([2]; female, po, 2000 mg/kg/day, Group 5, Female, 2000 mg/kg/day (1000 mg/kg/dose), oral, dosing at 0, 12 hr): 8240 ng/mL | Tmax ([2]; female, po, 2000 mg/kg/day, Group 5, Female, 2000 mg/kg/day (1000 mg/kg/dose), oral, dosing at 0, 12 hr, read-out: Tmax): 1.2 h | Tmax ([2]; female, po, 2000 mg/kg/day, females, 0, 12 hour dosing, read-out: Tmax (following the first dose)): 1.2 h | Tmax ([2]; female, po, 2000 mg/kg/day, females, 2000 mg/kg/day, 0, 8 hours dosing, read-out: Tmax (after the second dose)): 6 h | AUC ([2]; male, oral, 100 mg/kg/day, mice, 100 mg/kg/day, read-out: Average AUC): 3520 ng·h/mL | AUC(0-t) ([2]; male, po, 100 mg/kg/day, Group 1, Male, 100 mg/kg/day (50 mg/kg/dose), oral, dosing at 0, 8 hr, read-out: AUC0-8): 1950 ng·h/mL | AUC(0-t) ([2]; male, po, 100 mg/kg/day, Group 1, Male, 100 mg/kg/day (50 mg/kg/dose), oral, dosing at 0, 8 hr, read-out: AUC0-24): 3520 ng·h/mL
